Results published in patent US5183805A (Board of Regents, The University of Texas System, priority 1990, dated 1993).
Read-outs that look alike come from different tables or passages of the source. Positions of bridges follow the written chain, without caps; N, C: chain ends. Residues, ends and D or L forms follow the SMILES beside them. No end group written: not given here.

Key:
[1] = Heath and Merrifield (1986); cited from earlier work
EGF-R = biological target: T1, EGF-R (Homo sapiens, UniProt P00533); assay: Kinetics of EGF-R kinase stimulation: peptide added to A431 cells, then immune complex kinase assay; type: cell-based; conditions: 20 ng/ml peptide, 37° C, very preliminary
T1 construct: endogenous in cells; host or cells: A431 epidermoid carcinoma cells (ATCC CRL 1555)
Description: FIG. 1 - Kinetics of EGF-R stimulation by synthetic peptides. To semi-confluent A431 cells (grown in 0.1% FCS), indicated concentrations of cyclic (peptide A) or linear (peptide D) peptide with tyr at position 6 was added at a concentration of 20 ng/ml for 10 min at 37° C. Cells were harvested, lysed, EFG-R was immunoprecipitated, immune complex kinase assays were performed, and proteins resolved as described in FIG. 1. […] This figure compares preliminary kinetics of kinase stimulation after the addition of the active cyclic and less-active linear peptide to A431 cells. Immune complex kinase of EGF-r after addition of various biological response modifiers to A431 cells is shown.

[2] = tested on: ornithine decarboxylase (ODC) induction by EGF; assay: Effect of peptide pretreatment on EGF-stimulated ODC induction in ME-180 cells; type: cell-based; conditions: 100-fold excess, 100 ng/ml peptide 30 min, then 10 ng/ml EGF 3 hours
Description: FIG. 4--Effect of synthetic peptide pretreatment on EGF-stimulated ODC induction in ME-180 cells. […] Cells are pelleted, sonicated in a buffer containing 25 mM NaPO4, 1mM DTT, 40 μM PLP, 0.1 mM EDTA, and centrifuged for 30 min. at 15,000 rpm at 4° C. Ornithine decarboxylase activity was determined on the supernatant by monitoring ^14 CO2 released from 0.5 μCi of I (^14 C) ornithine in a total ornithine concentration of 0.5 mM and a total volume of 0.2ml. P1--linear peptide and P2--cyclic peptide with phe at position 6; P3--linear peptide and P4--cyclic peptide with tyr at position 6.

A431 cells = assay: Mitogenic stimulation / growth of A431 cells; type: cell-based; conditions: for effect on A431 cell growth: serum-free medium, counted after 72 hours
Description: FlG. […] Mitogenic Stimulation of A431 cells. […] The peptide analog 38A is the cyclic form of the peptide with native tyrosine. Cells were harvested 72 hours later and counted with the aid of a hemacytometer.
A431 cells are a malignant cell line in which the study of EGF-r has been well characterized. […] Over the range of peptide analog concentrations tested, no inhibition of A431 cell growth was observed.

EGF receptor [3] = biological target: T2, EGF receptor (Homo sapiens, UniProt P00533); assay: Summary statements on biological activity (receptor studies, parameters examined) compared with other EGF peptide analogs
Excerpt: Relative biological activity of a peptide also may reflect the activity of the peptide in immune complex kinase assays, the ability to inhibit ornithine decarboxylase activity, mitogenic stimulation activity, ability to induce EGF-r phosphorylation in vivo and action in the phosphorylation of calpactin.

EGF receptor [4] = biological target: T2, EGF receptor; assay: Inhibition of 125I-EGF binding to A431 cells (EGF receptor competition assay); set-up: endogenous in cells; host or cells: A431 epidermoid carcinoma cells (ATCC CRL 1555)
Description: FIG. 3--Inhibition of ^125 I-EGF binding by synthetic peptides. 1×10^5 A431 cells were plated in each well of a 24 well tissue culture plate, and allowed to grow for 48 o hours. Cells were rinsed 3 times in cold serum-free DMEM containing 0.1% BSA and 50 mM HEPES, pH 7.4, then incubated in this medium for 45 min. at 4° C. Subsequently, varying concentrations of peptide (or unlabeled EFG) was added, followed by 20,000 cpm ^125 I-EGF. After 2 hours incubation, medium is removed and cells are washed two times in PBS, then solubilized in 1 ml IN NaOH at 24° C. for 18 hours. Radioactivity in the solution is determined in a gamma counter. Peptide A--cyclic peptide with tyr at position 6; Peptide B--linear peptide with tyr at position 6; Peptide C --cyclic peptide with phe at position 6.
For this assay, cells were grown overnight in serum free media in microtiter wells, washed several times in PBS, then incubated for 2h with various concentrations of peptides. ^125 I-EGF was then added for 3o min, cells were extensively washed, and radioactivity was estimated in a gamma counter.

EGF receptor [5] = biological target: T2, EGF receptor; assay: Immune complex kinase assay of EGF-R immunoprecipitated from A431 cells, peptides added to the complexes, autophosphorylation measured; type: biochemical; set-up: endogenous in cells; host or cells: A431 epidermoid carcinoma cells (ATCC CRL 1555)
Description: A431 cells at approximately 70-80% confluency were lysed in a detergent-containing (RIPA) buffer, and clarified by centrifuging at 10,000×g for 10 min. […] Immune complexes were harvested after 15 min. incubation with 50 μl Pansorbin. For kinase assays, complexes were washed in RIPA buffer, then resuspended in 50 μl 1 0.1% Triton X-100 in 20 mM HEPES, pH 7.0, with the addition of 100 μm sodium vanadate. After 10 min. incubation, kinase reaction was initiated by addition of 50 μl of 20 mM HEPES containing 10 μCi γ^-32p ATP. Reaction was allowed to proceed at 25° C. for 10 min., and terminated by addition of RIPA buffer.
This assay is very sensitive, and kinase activation is among the earliest events in mitogenesis.
Immune complexes were harvested with formalin fixed staphylococcus aureus Cowan Strain (Calbiochem). These complexes were then assayed for kinase activity in an immune complex kinase assay.
Selected peptides from Example 3 were employed in the study.

T2 sequence (P00533 25-1210): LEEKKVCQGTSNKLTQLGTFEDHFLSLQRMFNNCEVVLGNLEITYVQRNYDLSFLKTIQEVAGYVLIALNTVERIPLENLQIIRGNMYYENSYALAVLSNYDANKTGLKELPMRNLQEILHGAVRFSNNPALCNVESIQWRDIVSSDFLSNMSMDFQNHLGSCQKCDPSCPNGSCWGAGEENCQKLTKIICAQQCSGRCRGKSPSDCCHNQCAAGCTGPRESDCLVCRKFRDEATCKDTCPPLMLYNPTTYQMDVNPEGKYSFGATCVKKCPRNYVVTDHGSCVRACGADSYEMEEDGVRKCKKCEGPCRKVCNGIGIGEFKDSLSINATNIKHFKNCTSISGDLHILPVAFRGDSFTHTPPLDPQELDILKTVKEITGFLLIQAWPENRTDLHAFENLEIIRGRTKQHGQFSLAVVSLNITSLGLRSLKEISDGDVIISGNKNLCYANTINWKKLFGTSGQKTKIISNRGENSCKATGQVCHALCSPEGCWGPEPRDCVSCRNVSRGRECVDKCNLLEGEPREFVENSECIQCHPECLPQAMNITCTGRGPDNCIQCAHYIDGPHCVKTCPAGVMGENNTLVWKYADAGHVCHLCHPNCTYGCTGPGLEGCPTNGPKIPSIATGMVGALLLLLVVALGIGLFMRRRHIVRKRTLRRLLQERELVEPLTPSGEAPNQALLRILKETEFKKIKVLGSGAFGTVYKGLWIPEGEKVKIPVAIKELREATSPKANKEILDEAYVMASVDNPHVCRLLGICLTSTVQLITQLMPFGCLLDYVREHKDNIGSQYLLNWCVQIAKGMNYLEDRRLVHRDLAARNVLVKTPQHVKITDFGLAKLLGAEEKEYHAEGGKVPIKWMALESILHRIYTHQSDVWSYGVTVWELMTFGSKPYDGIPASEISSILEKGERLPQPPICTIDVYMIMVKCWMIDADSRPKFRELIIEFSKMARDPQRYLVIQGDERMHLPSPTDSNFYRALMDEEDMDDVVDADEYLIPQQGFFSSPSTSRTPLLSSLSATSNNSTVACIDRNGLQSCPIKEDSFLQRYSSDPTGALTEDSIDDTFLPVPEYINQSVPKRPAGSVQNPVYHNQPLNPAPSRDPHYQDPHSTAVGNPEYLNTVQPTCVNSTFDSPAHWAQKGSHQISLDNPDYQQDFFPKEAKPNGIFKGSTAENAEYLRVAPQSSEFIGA
T1 sequence (P00533 25-1210): as above

isolated "B" loop: synthetic peptide of the isolated B loop of EGF (residues 20-31), Heath and Merrifield (CMYIEALDKYAC; ends and bridges not checked; cysteine pairing not given here; UniProt P01133 990-1001, looked up, fragment)
activity relative to EGF [1]: 0.001%

CC[C@H](C)[C@@H]1NC(=O)[C@H](Cc2ccc(O)cc2)NC(=O)CNC(=O)[C@H](C(C)C)NC(=O)[C@H](C(C)C)NC(=O)[C@@H](NC(=O)[C@H](CC(N)=O)NC(C)=O)CSSC[C@@H](C(=O)N[C@@H](CCC(N)=O)C(=O)N[C@@H](Cc2ccc(O)cc2)C(=O)N[C@@H](CCCNC(=N)N)C(=O)N[C@@H](CC(=O)O)C(=O)N[C@@H](CC(C)C)C(=O)N[C@@H](CCCCN)C(N)=O)NC(=O)[C@H](CCCNC(=N)N)NC(=O)[C@H](CCC(=O)O)NC(=O)CNC1=O [Peptide A] (Ac-NCVVGYIGERCQYRDLK-NH2; disulfide 2-11)
time of maximum stimulation of kinase activity (EGF-R): 15 min
inhibition of ODC induction of EGF [2]: 50%
effect on A431 cell growth (A431 cells; 0.1 ng/ml, listed as 38A): stimulated cell growth
effect on A431 cell growth (A431 cells; 0.1 ng/ml, listed as most biologically active cyclic peptide analog): stimulated these cells
effect of higher concentrations of EGF on A431 growth in the presence of peptide (A431 cells; 10 ng/ml peptide analog mixed with higher concentrations of EGF): no longer growth-inhibited
effect on A431 cell growth (A431 cells; 10 ng/ml, listed as 38A): stimulated cell growth
effect on A431 cell growth (A431 cells; 10 ng/ml, listed as most biologically active cyclic peptide analog): stimulated these cells
effect on A431 cell growth of peptide mixed with EGF (A431 cells; peptide and EGF mixed, low concentrations): stimulation of cell growth
inhibition of A431 cell growth over the range of concentrations tested (A431 cells; whole concentration range tested): no inhibition
biological activity relative to any other EGF peptide analog so far synthesized (EGF receptor [3]; listed as cyclic form of this unsubstituted peptide): 100 fold
biological activity relative to any other EGF peptide analog so far synthesized (EGF receptor [3]; listed as cyclic peptide comprising the end of the B loop and the C loop): 100 fold
biological activity relative to any other EGF peptide analog so far synthesized (EGF receptor [3]; listed as natural tyrosine form of the cyclic peptide analog): > 100 fold
competition for EGF receptor binding relative to any previously reported peptide (EGF receptor [4]): 100 fold
concentration for 50% inhibition of 125I-EGF binding relative to that for unlabeled EGF (EGF receptor [4]): 10 fold

CC[C@H](C)[C@H](NC(=O)[C@H](Cc1ccc(O)cc1)NC(=O)CNC(=O)[C@@H](NC(=O)[C@@H](NC(=O)[C@H](CS)NC(=O)[C@H](CC(N)=O)NC(C)=O)C(C)C)C(C)C)C(=O)NCC(=O)N[C@@H](CCC(=O)O)C(=O)N[C@@H](CCCNC(=N)N)C(=O)N[C@@H](CS)C(=O)N[C@@H](CCC(N)=O)C(=O)N[C@@H](Cc1ccc(O)cc1)C(=O)N[C@@H](CCCNC(=N)N)C(=O)N[C@@H](CC(=O)O)C(=O)N[C@@H](CC(C)C)C(=O)N[C@@H](CCCCN)C(N)=O [Peptide B] (Ac-NCVVGYIGERCQYRDLK-NH2)
biological activity relative to any other EGF peptide analog so far synthesized (EGF receptor [3]): 10 fold
competition for 125I-EGF binding (in words) (EGF receptor [4]): marginal competition

CC[C@H](C)[C@@H]1NC(=O)[C@H](Cc2ccccc2)NC(=O)CNC(=O)[C@H](C(C)C)NC(=O)[C@H](C(C)C)NC(=O)[C@@H](NC(=O)[C@H](CC(N)=O)NC(C)=O)CSSC[C@@H](C(=O)N[C@@H](CCC(N)=O)C(=O)N[C@@H](Cc2ccc(O)cc2)C(=O)N[C@@H](CCCNC(=N)N)C(=O)N[C@@H](CC(=O)O)C(=O)N[C@@H](CC(C)C)C(=O)N[C@@H](CCCCN)C(N)=O)NC(=O)[C@H](CCCNC(=N)N)NC(=O)[C@H](CCC(=O)O)NC(=O)CNC1=O [Peptide C] (Ac-NCVVGFIGERCQYRDLK-NH2; disulfide 2-11)
stimulation of kinase activity (EGF receptor [5]; 30 ng/ml peptide): approximately 2 fold
competition for 125I-EGF binding (in words) (EGF receptor [4]): marginal competition

epidermal growth factor (NSDSECPLSHDGYCLHDGVCMYIEALDKYACNCVVGYIGERCQYRDLKWWELR; Epidermal growth factor; UniProt P01133 971-1023, looked up) [EGF, single-chain polypeptide, 53 amino acid residues, three internal disulfide bonds]
effect on A431 cell growth (A431 cells; 0.1 ng/ml): stimulated A431 cell growth
effect on A431 cell growth (A431 cells; 0.1 ng/ml, listed as Native EGF): stimulated growth
effect on A431 cell growth (A431 cells; 10 ng/ml): inhibited
effect on A431 cell growth (A431 cells; 10 ng/ml, listed as Native EGF): inhibited cell growth

CC[C@H](C)[C@H](NC(=O)[C@H](Cc1ccccc1)NC(=O)CNC(=O)[C@@H](NC(=O)[C@@H](NC(=O)[C@H](CS)NC(=O)[C@H](CC(N)=O)NC(C)=O)C(C)C)C(C)C)C(=O)NCC(=O)N[C@@H](CCC(=O)O)C(=O)N[C@@H](CCCNC(=N)N)C(=O)N[C@@H](CS)C(=O)N[C@@H](CCC(N)=O)C(=O)N[C@@H](Cc1ccc(O)cc1)C(=O)N[C@@H](CCCNC(=N)N)C(=O)N[C@@H](CC(=O)O)C(=O)N[C@@H](CC(C)C)C(=O)N[C@@H](CCCCN)C(N)=O [Peptide P1] (Ac-NCVVGFIGERCQYRDLK-NH2)
stimulation of EGF-receptor kinase activity (in words) (EGF receptor [5]): no activity
